This assay addresses T1, BRM (Homo sapiens, UniProt P51531).
T1 construct: Western Blot Screen of BRM Degradation in SW1573 Cells; endogenous in cells; host or cells: SW1573 cells
Briefly: BRM degradation (Dmax and DC50) in SW1573 cells, Western blot screen / In-Cell Western screen. The assay is classed as cell-based. Conditions: overnight (18-20 hours) treatment; for Dmax: read-out: Dmax (%)** (% degraded). Put shortly: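 SW1573 cells were treated with compound for 18–20 h (final 0.1% DMSO). BRM was quantified either by Western blot of RIPA lysates or by fixed-cell In-Cell Western (LI-COR, 800/680 nm), each normalised to alpha-tubulin, giving Dmax and DC50.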

The results in this text go back to US20250059198A1, “BRM DEGRADING COMPOUNDS AND ASSOCIATED METHODS OF USE” (Arvinas Operations, Inc., priority 2021, published 2025).

T1 sequence (P51531 whole entry): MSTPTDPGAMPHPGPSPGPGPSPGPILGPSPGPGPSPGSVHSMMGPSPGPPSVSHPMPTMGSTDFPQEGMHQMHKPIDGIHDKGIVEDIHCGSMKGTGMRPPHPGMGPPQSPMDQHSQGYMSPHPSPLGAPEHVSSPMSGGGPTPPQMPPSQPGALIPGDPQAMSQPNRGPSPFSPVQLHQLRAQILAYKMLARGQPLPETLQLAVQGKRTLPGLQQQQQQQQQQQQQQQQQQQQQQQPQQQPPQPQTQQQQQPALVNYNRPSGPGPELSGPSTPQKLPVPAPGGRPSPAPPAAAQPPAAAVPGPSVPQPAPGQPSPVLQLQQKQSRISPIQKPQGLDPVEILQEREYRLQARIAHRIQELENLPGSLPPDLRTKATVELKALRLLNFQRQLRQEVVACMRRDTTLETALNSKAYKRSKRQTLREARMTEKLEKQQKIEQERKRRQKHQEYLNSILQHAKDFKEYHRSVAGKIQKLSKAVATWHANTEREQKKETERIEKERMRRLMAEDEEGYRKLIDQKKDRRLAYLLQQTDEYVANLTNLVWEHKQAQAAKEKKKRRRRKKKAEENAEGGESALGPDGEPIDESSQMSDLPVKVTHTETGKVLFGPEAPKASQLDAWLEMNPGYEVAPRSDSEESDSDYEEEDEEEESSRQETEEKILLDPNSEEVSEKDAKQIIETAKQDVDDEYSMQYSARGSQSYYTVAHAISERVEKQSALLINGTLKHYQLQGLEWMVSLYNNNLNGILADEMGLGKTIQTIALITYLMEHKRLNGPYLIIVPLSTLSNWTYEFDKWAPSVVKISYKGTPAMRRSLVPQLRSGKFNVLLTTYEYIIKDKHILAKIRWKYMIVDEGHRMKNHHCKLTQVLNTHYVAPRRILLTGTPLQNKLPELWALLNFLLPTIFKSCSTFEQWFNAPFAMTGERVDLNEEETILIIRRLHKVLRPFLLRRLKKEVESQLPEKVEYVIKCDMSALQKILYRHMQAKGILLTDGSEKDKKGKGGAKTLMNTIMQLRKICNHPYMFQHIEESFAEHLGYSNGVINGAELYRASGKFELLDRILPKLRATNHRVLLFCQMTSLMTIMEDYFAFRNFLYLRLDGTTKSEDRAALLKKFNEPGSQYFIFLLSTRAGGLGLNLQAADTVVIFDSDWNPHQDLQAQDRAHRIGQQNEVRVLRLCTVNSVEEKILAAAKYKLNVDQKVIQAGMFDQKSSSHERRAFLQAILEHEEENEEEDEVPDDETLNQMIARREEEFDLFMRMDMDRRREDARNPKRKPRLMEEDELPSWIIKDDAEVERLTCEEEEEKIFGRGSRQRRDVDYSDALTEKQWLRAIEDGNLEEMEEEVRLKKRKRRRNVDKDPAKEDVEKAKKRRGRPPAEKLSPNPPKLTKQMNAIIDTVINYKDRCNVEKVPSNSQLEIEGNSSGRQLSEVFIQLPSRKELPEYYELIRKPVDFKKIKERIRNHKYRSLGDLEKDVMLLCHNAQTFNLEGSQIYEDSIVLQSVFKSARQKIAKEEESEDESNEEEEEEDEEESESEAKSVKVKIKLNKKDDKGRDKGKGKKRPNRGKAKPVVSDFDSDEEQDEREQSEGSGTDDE

With `CC(C)[C@H](C(=O)N1C[C@H](O)C[C@H]1C(=O)N[C@@H](C)c1ccc(C#N)cc1)c1cc(N2CCN(C(=O)N3CCC(O[C@H]4C[C@H](Oc5cc(N6C7CCC6CN(c6cc(-c8ccccc8O)nnc6N)C7)ccn5)C4)CC3)CC2)no1` [Compound 139, (2S,4R)-N-[(1S)-1-(4-cyanophenyl)ethyl]-4-hydroxy-1-[(2S)-3-methyl-2-[3-(4-{4-[(1r,3r)-3-[(4-{3-[3-amino-6-(2-hydroxyphenyl)pyridazin-4-yl]-3,8-diazabicyclo[3.2.1]octan-8-yl}pyridin-2-yl)oxy]cyclobutoxy]piperidine-1-carbonyl}piperazin-1-yl)-1,2-oxazol-5-yl]butanoyl]pyrrolidine-2-carboxamide], the DC50 was at least 30 nM. Consider `CC(C)[C@@H](C(=O)N1C[C@H](O)C[C@H]1C(=O)N[C@@H](C)c1ccc(C#N)cc1)c1cc(N2CCN(C(=O)N3CCC(O[C@H]4C[C@H](Oc5cc(N6C7CCC6CN(c6cc(-c8ccccc8O)nnc6N)C7)ccn5)C4)CC3)CC2)no1` [Compound 140, (2S,4R)-N-[(1S)-1-(4-cyanophenyl)ethyl]-4-hydroxy-1-[(2R)-3-methyl-2-[3-(4-{4-[(1r,3r)-3-[(4-{3-[3-amino-6-(2-hydroxyphenyl)pyridazin-4-yl]-3,8-diazabicyclo[3.2.1]octan-8-yl}pyridin-2-yl)oxy]cyclobutoxy]piperidine-1-carbonyl}piperazin-1-yl)-1,2-oxazol-5-yl]butanoyl]pyrrolidine-2-carboxamide], for which the DC50 is below 2.5 nM and the Dmax was above 75%.

For `Cc1ncsc1-c1ccc([C@H](C)NC(=O)[C@@H]2C[C@@H](O)CN2C(=O)[C@@H](c2cc(N3CCC(CN4CC5(CC(N6CCO[C@H](CN7C8CCC7CN(c7cc(-c9ccccc9O)nnc7N)C8)C6)C5)C4)CC3)no2)C(C)C)cc1` [Compound 141, (2S,4R)-1-[(2R)-2-{3-[4-({6-[(2S)-2-({3-[3-amino-6-(2-hydroxyphenyl)pyridazin-4-yl]-3,8-diazabicyclo[3.2.1]octan-8-yl}methyl)morpholin-4-yl]-2-azaspiro[3.3]heptan-2-yl}methyl)piperidin-1-yl]-1,2-oxazol-5-yl}-3-methylbutanoyl]-4-hydroxy-N-[(1S)-1-[4-(4-methyl-1,3-thiazol-5-yl)phenyl]ethyl]pyrrolidine-2-carboxamide], the DC50 was below 2.5 nM and the Dmax is above 75%. In the case of `Cc1ncsc1-c1ccc([C@H](C)NC(=O)[C@@H]2C[C@@H](O)CN2C(=O)[C@@H](c2cc(N3CCC(CN4CCCC5(CC(N6CCO[C@H](CN7C8CCC7CN(c7cc(-c9ccccc9O)nnc7N)C8)C6)C5)C4)CC3)no2)C(C)C)cc1` (stereo partly drawn) [Compound 142, (2S,4R)-1-[(2R)-2-{3-[4-({2-[(2S)-2-({3-[3-amino-6-(2-hydroxyphenyl)pyridazin-4-yl]-3,8-diazabicyclo[3.2.1]octan-8-yl}methyl)morpholin-4-yl]-6-azaspiro[3.5]nonan-6-yl}methyl)piperidin-1-yl]-1,2-oxazol-5-yl}-3-methylbutanoyl]-4-hydroxy-N-[(1S)-1-[4-(4-methyl-1,3-thiazol-5-yl)phenyl]ethyl]pyrrolidine-2-carboxamide], the DC50 was below 2.5 nM and the Dmax was above 75%. `Cc1ncsc1-c1ccc([C@H](C)NC(=O)[C@@H]2C[C@@H](O)CN2C(=O)[C@@H](c2cc(N3CCC(CN4CCC5(CCC5N5CCO[C@H](CN6C7CCC6CN(c6cc(-c8ccccc8O)nnc6N)C7)C5)CC4)CC3)no2)C(C)C)cc1` (stereo partly drawn) [Compound 143, (2S,4R)-1-[(2R)-2-{3-[4-({1-[(2S)-2-({3-[3-amino-6-(2-hydroxyphenyl)pyridazin-4-yl]-3,8-diazabicyclo[3.2.1]octan-8-yl}methyl)morpholin-4-yl]-7-azaspiro[3.5]nonan-7-yl}methyl)piperidin-1-yl]-1,2-oxazol-5-yl}-3-methylbutanoyl]-4-hydroxy-N-[(1S)-1-[4-(4-methyl-1,3-thiazol-5-yl)phenyl]ethyl]pyrrolidine-2-carboxamide]: the DC50 is below 2.5 nM and the Dmax was above 75%.
